Source: PMC12196486, “Search for Antiviral Preparations in Series of New Derivatives of N-Substituted Piperidines” (Molecules, 2025)
Values after ≈ are worked out from the molar mass of the structure shown. “Also recorded” adds a separate entry of the source. Structures can show the parent of a compound that is named as a salt. Where two headings read alike, the source gives them in different places.

What was measured:
[1] = test system: influenza A/Swine/Iowa/30 (H1N1) virus; type: cell-based; details: for Antiviral activity relative to oseltamivir (Tamiflu): concentrations corresponding to 1/2 of CC50; for Efficacy relative to commercially available oseltamivir: at similar or lower concentrations
[2] = Cytotoxicity in vitro, MTT test on MDCK cell culture; details: dog
in vitro = details: dog

CCCN1CCC(O)(C(=O)O)CC1 [3b, Hydrochloride of 1-propyl-4-carboxy-4-hydroxypiperidine]
Titre in HAU ([1]; 0.15 mg/mL, PC titre 5.0 ± 0): 5.0 ± 0 log2 | Titre in HAU ([1]; 0.30 mg/mL, PC titre 5.0 ± 0): 5.0 ± 0 log2 | Titre in HAU ([1]; 0.59 mg/mL, PC titre 5.0 ± 0): 5.0 ± 0 log2 | Titre in HAU ([1]; 1.19 mg/mL, PC titre 5.0 ± 0): 5.0 ± 0 log2 | Titre in HAU ([1]; 2.38 mg/mL, PC titre 5.0 ± 0): 4.4 ± 0.6 log2 | Reduction of virus replication ([1]; 4.75 mg/mL (maximum tested concentration)): 1.0 log2 | Titre in HAU ([1]; 4.75 mg/mL, PC titre 5.0 ± 0): 4.0 ± 0 log2 | Antiviral activity relative to oseltamivir (Tamiflu) [1]: slightly inferior; also recorded: significantly lower antiviral activity | CC50 at 72 h [2]: 9500 ± 364 µg/mL

O=C(OC1(C(=O)O)CCN(Cc2ccccc2)CC1)C1CC1 [5c, Hydrochloride of 1-benzyl-4-cyclopropanoyloxy-piperidine-4-carboxylic acid]
Titre in HAU ([1]; 0.058 mg/mL, PC titre 5.0 ± 0): 5.0 ± 0 log2 | Titre in HAU ([1]; 0.116 mg/mL, PC titre 5.0 ± 0): 5.0 ± 0 log2 | Titre in HAU ([1]; 0.231 mg/mL, PC titre 5.0 ± 0): 5.0 ± 0 log2 | Titre in HAU ([1]; 0.463 mg/mL, PC titre 5.0 ± 0): 5.0 ± 0 log2 | Titre in HAU ([1]; 0.925 mg/mL, PC titre 5.0 ± 0): 4.4 ± 0.6 log2 | Suppression of virus replication compared to the control group ([1]; 1.85 mg/mL (maximum investigated concentration)): 1.2 log2 | Titre in HAU ([1]; 1.850 mg/mL, PC titre 5.0 ± 0): 3.8 ± 1.1 log2 | Antiviral effect at the other concentrations tested ([1]; concentrations below 1.85 mg/mL): No statistically significant antiviral effect | Level of antiviral activity relative to rimantadine ([1]; concentrations equivalent to 1/2 CC50): comparable to that of rimantadine | CC50 at 72 h [2]: 3700 ± 189 µg/mL

O=C(OC1(C(=O)O)CCN(CCc2ccccc2)CC1)C1CC1 [5d, Hydrochloride of 1-(2-phenylethyl)-4-cyclopropanoyloxy-piperidine-4-carboxylic acid]
Titre in HAU ([1]; 0.0025 mg/mL, PC titre 6.0 ± 0): 6.0 ± 0 log2 | Titre in HAU ([1]; 0.0050 mg/mL, PC titre 6.0 ± 0): 6.0 ± 0 log2 | Titre in HAU ([1]; 0.0100 mg/mL, PC titre 6.0 ± 0): 6.0 ± 0 log2 | Titre in HAU ([1]; 0.0200 mg/mL, PC titre 6.0 ± 0): 6.0 ± 0 log2 | Reduction of virus replication ([1]; 0.04 mg/mL): 1.2 log2 | Titre in HAU ([1]; 0.0400 mg/mL, PC titre 6.0 ± 0): 4.8 ± 0.5 log2 | Reduction of virus replication ([1]; 0.08 mg/mL): 2.0 log2 | Titre in HAU ([1]; 0.0800 mg/mL, PC titre 6.0 ± 0): 4.0 ± 0 log2 | Antiviral activity relative to oseltamivir (Tamiflu) [1]: slightly inferior | CC50 at 72 h [2]: 160 ± 6 µg/mL

CC(N)C12CC3CC(CC(C3)C1)C2 (stereo not shown) [Rimantadine, reference compound]
Titre in HAU ([1]; 0.003 mg/mL, PC titre 6.0 ± 0): 4.2 ± 0.4 log2 | Titre in HAU ([1]; 0.005 mg/mL, PC titre 6.0 ± 0): 4.2 ± 0.4 log2 | Titre in HAU ([1]; 0.010 mg/mL, PC titre 6.0 ± 0): 4.2 ± 0.4 log2 | Titre in HAU ([1]; 0.020 mg/mL, PC titre 6.0 ± 0): 4.2 ± 0.4 log2 | Titre in HAU ([1]; 0.040 mg/mL, PC titre 6.0 ± 0): 4.2 ± 0.4 log2 | Titre in HAU ([1]; 0.080 mg/mL, PC titre 6.0 ± 0): 4.2 ± 0.4 log2 | CC50 at 72 h (in vitro): 160 ± 11 µg/mL (≈ 892 µM)

CCOC(=O)C1=C[C@@H](OC(CC)CC)[C@H](NC(C)=O)[C@@H](N)C1 [Tamiflu, oseltamivir, reference compound]
Titre in HAU ([1]; 0.01 mg/mL, PC titre 5.0 ± 0): 4.0 ± 0 log2 | Titre in HAU ([1]; 0.02 mg/mL, PC titre 5.0 ± 0): 4.0 ± 0 log2 | Titre in HAU ([1]; 0.04 mg/mL, PC titre 5.0 ± 0): 3.0 ± 0 log2 | Titre in HAU ([1]; 0.08 mg/mL, PC titre 5.0 ± 0): 3.0 ± 0 log2 | Titre in HAU ([1]; 0.17 mg/mL, PC titre 5.0 ± 0): 2.4 ± 0.5 log2 | Titre in HAU ([1]; 0.33 mg/mL, PC titre 5.0 ± 0): 2.4 ± 0.5 log2 | Reduction of viral load ([1]; 0.02 and 0.01 mg/mL): 1.0 log2 | Reduction of viral load ([1]; 0.08 and 0.04 mg/mL): 2.0 log2 | Reduction in the reproduction of 100 infectious doses of the virus ([1]; 0.33 and 0.17 mg/mL): 2.6 log2 | CC50 at 72 h [2]: 660 ± 91 µg/mL (≈ 2110 µM)

O=C(OC1CCN(Cc2ccccc2)CC1)c1ccc(C(F)(F)F)cc1 [compound 8, Hydrochloride of 1-benzyl-4-trifluoromethylbenzoyloxy-piperidine]
Titre in HAU ([1]; 0.0011 mg/mL, PC titre 6.0 ± 0): 6.0 ± 0 log2 | Titre in HAU ([1]; 0.0022 mg/mL, PC titre 6.0 ± 0): 6.0 ± 0 log2 | Titre in HAU ([1]; 0.0044 mg/mL, PC titre 6.0 ± 0): 6.0 ± 0 log2 | Titre in HAU ([1]; 0.0088 mg/mL, PC titre 6.0 ± 0): 5.0 ± 0 log2 | Titre in HAU ([1]; 0.0175 mg/mL, PC titre 6.0 ± 0): 5.0 ± 0 log2 | Reduction of viral load ([1]; 0.035 mg/mL): 2.0 log2 | Titre in HAU ([1]; 0.0350 mg/mL, PC titre 6.0 ± 0): 4.0 ± 0 log2 | Reduction of viral load ([1]; 0.0175 and 0.0088 mg/mL): 1.0 log2 | Efficacy relative to commercially available oseltamivir [1]: comparable efficacy | Antiviral activity relative to oseltamivir (Tamiflu) [1]: slightly inferior | CC50 at 72 h [2]: 70 ± 5 µg/mL

O=C(ON=C1CCN(Cc2ccccc2)CC1)c1c(F)cccc1F [compound 11, Hydrochloride of 1-benzyl-4-(2,6-difluoro-benzoyloxymino) piperidine]
Titre in HAU ([1]; 0.0020 mg/mL, PC titre 6.0 ± 0): 6.0 ± 0 log2 | Titre in HAU ([1]; 0.0041 mg/mL, PC titre 6.0 ± 0): 6.0 ± 0 log2 | Titre in HAU ([1]; 0.0081 mg/mL, PC titre 6.0 ± 0): 6.0 ± 0 log2 | Titre in HAU ([1]; 0.0163 mg/mL, PC titre 6.0 ± 0): 6.0 ± 0 log2 | Titre in HAU ([1]; 0.0325 mg/mL, PC titre 6.0 ± 0): 4.0 ± 0 log2 | Titre in HAU ([1]; 0.0650 mg/mL, PC titre 6.0 ± 0): 4.0 ± 0 log2 | Inhibition of replication of 100 infectious doses compared to the control group ([1]; 0.0650 and 0.0325 mg/mL): 2.0 log2 | Efficacy relative to commercially available oseltamivir [1]: comparable efficacy | Antiviral activity relative to oseltamivir (Tamiflu) [1]: slightly inferior | CC50 at 72 h [2]: 130 ± 2 µg/mL
